# Key:
# Type in all cases: in vivo
# [1] = tested on: giant foxtail (Setaria faberi); experiment: Test G Post-Emergence Protocol; conditions: Setaria faberi, post-emergence, 312 h; for pest or weed control at 15.625 g/ha: 15.625 g ai/ha, evaluated after 13 days (100=total damage to plant; 0=no damage to plant), read-out: Foxtail, Giant damage rating; for pest or weed control at 62.5 g/ha: 62.5 g ai/ha, read-out: Foxtail, Giant damage rating (100=total damage to plant; 0=no damage to plant); for pest or weed control at 62.5 g/ha / pest or weed control at 250 g/ha: evaluated after 13 days; for pest or weed control at 250 g/ha: 250 g ai/ha, read-out: damage to plant, Foxtail, Giant (100=total damage to plant; 0=no damage to plant)
# Outline: (§1)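 A glasshouse post-emergence test: 8-day-old plants sprayed at 15.625, 62.5 or 250 g/ha, then grown at 24/16 °C day/night with 14 h light and 65% humidity. Damage rated 13 days later, 0–100.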
# [2] = tested on: ivy-leaved morning glory (Ipomoea hederacea); experiment: Test G Post-Emergence Protocol; conditions: Ipomoea, post-emergence, 312 h; for pest or weed control at 15.625 g/ha: 15.625 g ai/ha, evaluated after 13 days (100=total damage to plant; 0=no damage to plant), read-out: Morningglory, Ivy-leaved damage rating; for pest or weed control at 62.5 g/ha: 62.5 g ai/ha, read-out: Morningglory, Ivy-leaved damage rating (100=total damage to plant; 0=no damage to plant); for pest or weed control at 62.5 g/ha / pest or weed control at 250 g/ha: evaluated after 13 days; for pest or weed control at 250 g/ha: 250 g ai/ha, read-out: damage to plant, Morningglory, Ivy-leaved (100=total damage to plant; 0=no damage to plant)
# Outline: as §1
# [3] = tested on: barnyardgrass (Echinochloa crus-galli); experiment: Test G Post-Emergence Protocol; conditions: Echinochloa crus-galli, post-emergence, 312 h; for pest or weed control at 15.625 g/ha: 15.625 g ai/ha, evaluated after 13 days (100=total damage to plant; 0=no damage to plant), read-out: Barnyardgrass damage rating; for pest or weed control at 62.5 g/ha: 62.5 g ai/ha, read-out: Barnyardgrass damage rating (100=total damage to plant; 0=no damage to plant); for pest or weed control at 62.5 g/ha / pest or weed control at 250 g/ha: evaluated after 13 days; for pest or weed control at 250 g/ha: 250 g ai/ha, read-out: damage to plant, Barnyardgrass (100=total damage to plant; 0=no damage to plant)
# Outline: as §1
# [4] = tested on: redroot pigweed (Amaranthus retroflexus); experiment: Test G Post-Emergence Protocol; conditions: Amaranthus retroflexus, post-emergence, 312 h; for pest or weed control at 15.625 g/ha: 15.625 g ai/ha, evaluated after 13 days (100=total damage to plant; 0=no damage to plant), read-out: Pigweed, Redroot damage rating; for pest or weed control at 62.5 g/ha: 62.5 g ai/ha, read-out: Pigweed, Redroot damage rating (100=total damage to plant; 0=no damage to plant); for pest or weed control at 62.5 g/ha / pest or weed control at 250 g/ha: evaluated after 13 days; for pest or weed control at 250 g/ha: 250 g ai/ha, read-out: damage to plant, Pigweed, Redroot (100=total damage to plant; 0=no damage to plant)
# Outline: as §1
# corn (Zea mays) [5] = experiment: Test G Post-Emergence Protocol; conditions: Zea mays, post-emergence, 312 h; for plant injury at 15.625 g/ha: 15.625 g ai/ha, evaluated after 13 days (100=total damage to plant; 0=no damage to plant), read-out: Corn damage rating; for plant injury at 62.5 g/ha: 62.5 g ai/ha, read-out: Corn damage rating (100=total damage to plant; 0=no damage to plant); for plant injury at 62.5 g/ha / plant injury at 250 g/ha: evaluated after 13 days; for plant injury at 250 g/ha: 250 g ai/ha, read-out: damage to plant, Corn (100=total damage to plant; 0=no damage to plant)
# Outline: as §1
# [6] = tested on: velvetleaf (Abutilon theophrasti); experiment: Test G Post-Emergence Protocol; conditions: Abutilon theophrasti, post-emergence, 312 h; for pest or weed control at 15.625 g/ha: 15.625 g ai/ha, evaluated after 13 days (100=total damage to plant; 0=no damage to plant), read-out: Velvetleaf damage rating; for pest or weed control at 62.5 g/ha: 62.5 g ai/ha, read-out: Velvetleaf damage rating (100=total damage to plant; 0=no damage to plant); for pest or weed control at 62.5 g/ha / pest or weed control at 250 g/ha: evaluated after 13 days; for pest or weed control at 250 g/ha: 250 g ai/ha, read-out: damage to plant, Velvetleaf (100=total damage to plant; 0=no damage to plant)
# Outline: as §1
# [7] = tested on: giant foxtail (Setaria faberi); experiment: Test G Pre-Emergence Protocol; conditions: Setaria faberi, pre-emergence, 312 h, evaluated after 13 days; for pest or weed control at 15.625 g/ha: 15.625 g ai/ha; for pest or weed control at 15.625 g/ha / pest or weed control at 250 g/ha: read-out: Foxtail, Giant damage rating (100=total damage to plant; 0=no damage to plant); for pest or weed control at 62.5 g/ha: 62.5 g ai/ha, 100=total damage to plant, 0=no damage to plant, read-out: plant damage rating, Foxtail, Giant; for pest or weed control at 250 g/ha: 250 g ai/ha
# Outline: (§2)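 Pre-emergence spray, 15.625/62.5/250 g/ha, vehicle acetone:water 50:50 + 0.5% Tween 20, applied 1 d after sowing. Glasshouse 24/16° C, 14 h light, 65% RH, watered twice daily. Visual damage rating at 13 d, 0–100 scale.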
# [8] = tested on: ivy-leaved morning glory (Ipomoea hederacea); experiment: Test G Pre-Emergence Protocol; conditions: Ipomoea, pre-emergence, 312 h, evaluated after 13 days; for pest or weed control at 15.625 g/ha: 15.625 g ai/ha, read-out: Morning-glory, Ivy-leaved damage rating (100=total damage to plant; 0=no damage to plant); for pest or weed control at 62.5 g/ha: 62.5 g ai/ha, 100=total damage to plant, 0=no damage to plant, read-out: plant damage rating, Morningglory, Ivy-leaved; for pest or weed control at 250 g/ha: 250 g ai/ha, read-out: Morningglory, Ivy-leaved damage rating (100=total damage to plant; 0=no damage to plant)
# Outline: as §2
# [9] = tested on: barnyardgrass (Echinochloa crus-galli); experiment: Test G Pre-Emergence Protocol; conditions: Echinochloa crus-galli, pre-emergence, 312 h, evaluated after 13 days; for pest or weed control at 15.625 g/ha: 15.625 g ai/ha, read-out: Barnyard grass damage rating (100=total damage to plant; 0=no damage to plant); for pest or weed control at 62.5 g/ha: 62.5 g ai/ha, 100=total damage to plant, 0=no damage to plant, read-out: plant damage rating, Barnyardgrass; for pest or weed control at 250 g/ha: 250 g ai/ha, read-out: Barnyardgrass damage rating (100=total damage to plant; 0=no damage to plant)
# Outline: as §2
# [10] = tested on: redroot pigweed (Amaranthus retroflexus); experiment: Test G Pre-Emergence Protocol; conditions: Amaranthus retroflexus, pre-emergence, 312 h, evaluated after 13 days; for pest or weed control at 15.625 g/ha: 15.625 g ai/ha; for pest or weed control at 15.625 g/ha / pest or weed control at 250 g/ha: read-out: Pigweed, Redroot damage rating (100=total damage to plant; 0=no damage to plant); for pest or weed control at 62.5 g/ha: 62.5 g ai/ha, 100=total damage to plant, 0=no damage to plant, read-out: plant damage rating, Pigweed, Redroot; for pest or weed control at 250 g/ha: 250 g ai/ha
# Outline: as §2
# corn (Zea mays) [11] = experiment: Test G Pre-Emergence Protocol; conditions: Zea mays, pre-emergence, 312 h, evaluated after 13 days; for plant injury at 15.625 g/ha: 15.625 g ai/ha; for plant injury at 15.625 g/ha / plant injury at 250 g/ha: read-out: Corn damage rating (100=total damage to plant; 0=no damage to plant); for plant injury at 62.5 g/ha: 62.5 g ai/ha, 100=total damage to plant, 0=no damage to plant, read-out: plant damage rating, Corn; for plant injury at 250 g/ha: 250 g ai/ha
# Outline: as §2
# [12] = tested on: velvetleaf (Abutilon theophrasti); experiment: Test G Pre-Emergence Protocol; conditions: Abutilon theophrasti, pre-emergence, 312 h, evaluated after 13 days; for pest or weed control at 15.625 g/ha: 15.625 g ai/ha; for pest or weed control at 15.625 g/ha / pest or weed control at 250 g/ha: read-out: Velvetleaf damage rating (100=total damage to plant; 0=no damage to plant); for pest or weed control at 62.5 g/ha: 62.5 g ai/ha, 100=total damage to plant, 0=no damage to plant, read-out: plant damage rating, Velvetleaf; for pest or weed control at 250 g/ha: 250 g ai/ha
# Outline: as §2
SMILES,pest or weed control at 15.625 g/ha [1],pest or weed control at 62.5 g/ha [1],pest or weed control at 250 g/ha [1],pest or weed control at 15.625 g/ha [2],pest or weed control at 62.5 g/ha [2],pest or weed control at 250 g/ha [2],pest or weed control at 15.625 g/ha [3],pest or weed control at 62.5 g/ha [3],pest or weed control at 250 g/ha [3],pest or weed control at 15.625 g/ha [4],pest or weed control at 62.5 g/ha [4],pest or weed control at 250 g/ha [4],plant injury at 15.625 g/ha (corn (Zea mays) [5]),plant injury at 62.5 g/ha (corn (Zea mays) [5]),plant injury at 250 g/ha (corn (Zea mays) [5]),pest or weed control at 15.625 g/ha [6],pest or weed control at 62.5 g/ha [6],pest or weed control at 250 g/ha [6],pest or weed control at 15.625 g/ha [7],pest or weed control at 62.5 g/ha [7],other results
CN1C[C@@H](c2ccc(C(F)(F)F)cc2)[C@H](C(=O)Nc2ncccn2)C1=O (racemic) [Compound 1564],0%,0%,10%,0%,0%,0%,0%,0%,20%,0%,0%,10%,0%,0%,10%,0%,0%,0%,0%,0%,pest or weed control at 250 g/ha [7]: 0%; pest or weed control at 15.625 g/ha [8]: 0%; pest or weed control at 62.5 g/ha [8]: 0%; pest or weed control at 250 g/ha [8]: 0%; pest or weed control at 15.625 g/ha [9]: 0%; pest or weed control at 62.5 g/ha [9]: 0%; pest or weed control at 250 g/ha [9]: 0%; pest or weed control at 15.625 g/ha [10]: 0%; pest or weed control at 62.5 g/ha [10]: 0%; pest or weed control at 250 g/ha [10]: 0%; plant injury at 15.625 g/ha (corn (Zea mays) [11]): 0%; plant injury at 62.5 g/ha (corn (Zea mays) [11]): 0%; plant injury at 250 g/ha (corn (Zea mays) [11]): 10%; pest or weed control at 15.625 g/ha [12]: 0%; pest or weed control at 62.5 g/ha [12]: 0%; pest or weed control at 250 g/ha [12]: 0%
CN1C[C@@H](c2ccc(C(F)(F)F)cc2)[C@H](C(=O)Nc2[nH]ncc2C#N)C1=O (racemic) [Compound 1551],0%,0%,0%,0%,0%,0%,0%,0%,0%,0%,0%,0%,0%,0%,10%,0%,0%,0%,0%,0%,pest or weed control at 250 g/ha [7]: 0%; pest or weed control at 15.625 g/ha [8]: 0%; pest or weed control at 62.5 g/ha [8]: 0%; pest or weed control at 250 g/ha [8]: 0%; pest or weed control at 15.625 g/ha [9]: 0%; pest or weed control at 62.5 g/ha [9]: 0%; pest or weed control at 250 g/ha [9]: 0%; pest or weed control at 15.625 g/ha [10]: 0%; pest or weed control at 62.5 g/ha [10]: 0%; pest or weed control at 250 g/ha [10]: 0%; plant injury at 15.625 g/ha (corn (Zea mays) [11]): 0%; plant injury at 62.5 g/ha (corn (Zea mays) [11]): 0%; plant injury at 250 g/ha (corn (Zea mays) [11]): 0%; pest or weed control at 15.625 g/ha [12]: 0%; pest or weed control at 62.5 g/ha [12]: 0%; pest or weed control at 250 g/ha [12]: 0%
